How the values were obtained:
[1] = Radioactivity in organs of mice carrying B16 melanomas after IP injection of molecule A; assay type: in vivo; design: Radioactivity measured: unit not given here; details: for Radioactivity measured: 10 μCi/animal
[2] = test system: microvessel growth (chick aortic ring); experiment: Vascular growth assay on chick embryos (chick aortic ring assay); assay type: cell-based
From the text: The ongoing research will make it possible to specify its effectiveness, compared with thalidomide alone, in blocking tumor development.

[3] = test system: B16 melanoma cells; experiment: Toxicity / cytotoxicity on B16 melanoma cells; assay type: cell-based
Experimental: The cytotoxicity of this molecule was tested on B16 melanoma cells; no toxicity could be measured up to concentrations of greater than 100 μM.

[4] = test system: fibroblasts; experiment: Toxicity on cell cultures of fibroblasts; assay type: cell-based
[5] = Water-solubility; assay type: physicochemical
From the text: As has been seen, however, the growth of a cancerous tumor is closely linked to its rate of vascularization and therefore to the phenomenon of angiogenesis that accompanies it. These observations had the scientific community to develop substrates, as has been seen, capable of inhibiting angiogenesis and therefore of blocking, by this means, the development of tumors. It is in fact now commonly accepted that membrane proteins carried by the angiogenic cells, and called integrins, participate actively in the process of proliferation of these cells. More particularly, αVβ3 integrins recognize a specific peptide sequence, the RGD (arginine-glycine-aspartic acid) sequence. The grafting of this unit onto the proposed vector should therefore provide it with an ability to specifically target angiogenic sites and therefore, ultimately, tumor sites. The addition, to this same vector, of an antimitotic agent should allow the selective destruction of the cancerous cells. In this perspective, molecule B was initially prepared to verify the innocuousness of the vector and to determine its specificity. In order to give the targeting agent a greater degree of freedom, said targeting agent was grafted onto the central lysine by means of a […] amino acid, serine. The molecule is water-soluble and is amphiphilic in nature. [drawing 11]

[6] = Radioactivity in mice carrying B16 melanoma after IV injection of iodine 125-labeled molecule B; assay type: in vivo; design: Radioactivity measured: unit not given here; details: for Radioactivity measured: 10 μCi/animal
[7] = test system: fibroblasts exhibiting the NARP mutation; assay type: cell-based
From the text: The aim pursued here was to refine and to simplify the structure of these substrates while at the same time conserving their biological activity in order to develop a synthetic process that can be readily adapted to the industrial phase.

`O=C1CCC(N2C(=O)c3ccc(C(=O)NC(Cc4ccc(O)cc4)C(=O)NCCCCC(NC(=O)C(O)[C@H](O)[C@H](O[C@@H]4OC(CO)[C@H](O)[C@H](O)C4O)C(O)CO)C(=O)NCCC(F)(F)C(F)(F)C(F)(F)C(F)(F)C(F)(F)C(F)(F)C(F)(F)C(F)(F)F)cc3C2=O)C(=O)N1` (stereo partly drawn) [molecule A] gave a Radioactivity measured ([1]; Blood, 15 min after IP injection) of 5.9 ± 1.2, a Radioactivity measured ([1]; Blood, 1 h after IP injection) of 3.4 ± 0.7 and a Radioactivity measured ([1]; Kidney, 15 min after IP injection) of 4.6 ± 0.5. It also gave a Radioactivity measured ([1]; Kidney, 1 h after IP injection) of 4.0 ± 0.9, a Radioactivity measured ([1]; Liver, 15 min after IP injection) of 4.5 ± 1.1 and a Radioactivity measured ([1]; Liver, 1 h after IP injection) of 2.2 ± 0.8. It also gave a Radioactivity measured ([1]; Thyroid, 15 min after IP injection) of 5.6 ± 0.8, a Radioactivity measured ([1]; Thyroid, 1 h after IP injection) of 9.8 ± 1.7 and a Radioactivity measured ([1]; Tumor (center), 15 min after IP injection) of 2.6 ± 0.5. It also gave a Radioactivity measured ([1]; Tumor (center), 1 h after IP injection) of 2.7 ± 0.5, a Radioactivity measured ([1]; Tumor (stroma), 15 min after IP injection) of 4.5 ± 0.7 and a Radioactivity measured ([1]; Tumor (stroma), 1 h after IP injection) of 5.4 ± 0.2. The Localisation in vivo ([1]; mice carrying B16 melanomas, IP injection) was “concentrated in the stroma of the tumor”, the Inhibiting microvessel growth ([2]; at 20 μM) was “effective” and the Inhibiting microvessel growth ([2]; at 200 μM) was “completely blocks the development”. For the same compound, the “Toxicity on cell cultures” value ([3]; B16 melanomas) was “no totally unacceptable toxicity” and the “Toxicity on cell cultures” value [4] was “no totally unacceptable toxicity”.

In the case of `COC(=O)C(CCCCNC(=O)C(Cc1ccc(O)cc1)NC(=O)C(C)(C)C(C)(C)C(F)(F)C(F)(F)C(F)(F)C(F)(F)C(F)(F)C(F)(F)C(F)(F)C(F)(F)F)NCC(CO)NC(=O)C(CC(=O)O)NC(=O)CNC(=O)C(N)CCCNC(=N)N` (stereo not drawn) [molecule B], the Water-solubility [5] is reported as “water-soluble”, the Radioactivity measured ([6]; Blood, 15 min after IV injection) is reported as 5.8 ± 0.8 and the Radioactivity measured ([6]; Blood, 30 min after IV injection) is reported as 4.5 ± 0.8. The Radioactivity measured ([6]; Blood, 1 h after IV injection) was 3.6 ± 0.7, the Radioactivity measured ([6]; Kidney, 15 min after IV injection) was 8.9 ± 1.6 and the Radioactivity measured ([6]; Kidney, 30 min after IV injection) was 5.9 ± 0.6. The Radioactivity measured ([6]; Kidney, 1 h after IV injection) was 3.5 ± 0.6, the Radioactivity measured ([6]; Liver, 15 min after IV injection) was 4.8 ± 0.8 and the Radioactivity measured ([6]; Liver, 30 min after IV injection) was 2.2 ± 0.6. The Radioactivity measured ([6]; Liver, 1 h after IV injection) was 2.4 ± 0.7, the Radioactivity measured ([6]; Thyroid, 15 min after IV injection) was 5.9 ± 1.2 and the Radioactivity measured ([6]; Thyroid, 30 min after IV injection) was 10.2 ± 2.5. It also gave a Radioactivity measured ([6]; Thyroid, 1 h after IV injection) of 15.3 ± 5.3, a Radioactivity measured ([6]; Tumor (center), 15 min after IV injection) of 1.7 ± 0.6 and a Radioactivity measured ([6]; Tumor (center), 30 min after IV injection) of 1.8 ± 0.3. For the same compound, the Radioactivity measured ([6]; Tumor (center), 1 h after IV injection) was 2.4 ± 0.4, the Radioactivity measured ([6]; Tumor (stroma), 15 min after IV injection) was 3.9 ± 0.8 and the Radioactivity measured ([6]; Tumor (stroma), 30 min after IV injection) was 3.8 ± 0.9. For the same compound, the Radioactivity measured ([6]; Tumor (stroma), 1 h after IV injection) was 4.2 ± 0.6, the Localisation in vivo ([6]; iodine 125-labeled, injected intravenously, mice carrying a melanoma) was “accumulates in the stroma of the tumor” and the “Cytotoxicity: concentration up to which no toxicity could be measured” value ([3]; B16 melanoma cells) was “greater than 100 μM”.

For `CC(C)(C)/[N+]([O-])=C/c1ccc(C(=O)NCCCCC(NC(=O)C(O)[C@H](O)[C@H](O[C@@H]2OC(CO)[C@H](O)C(O)C2O)C(O)CO)C(=O)NCCC(F)(F)C(F)(F)C(F)(F)C(F)(F)C(F)(F)C(F)(F)C(F)(F)C(F)(F)F)cc1` (stereo partly drawn) [molecule E], the Toxicity [7] was “No toxicity was measured”, the Cell protection ([7]; NARP fibroblasts, in vitro) was “exhibits a capacity for cell protection” and the “Effect on the apoptotic process” value ([7]; NARP fibroblasts, in vitro) was “inhibits the apoptotic process”.

For `O=C1CCC(N2C(=O)c3ccccc3C2=O)C(=O)N1` (stereo not drawn) [thalidomide, reference compound], the Inhibiting microvessel growth ([2]; at such concentrations (20 μM, 200 μM)) was “ineffective”.
